Test [1] has as its target Muscarinic acetylcholine receptor M3 (Rattus norvegicus, UniProt P08483). In words: Inhibition of binding of [3H]N-methylscopolamine to muscarinic receptor (M3) in rat submaxillary gland homogenates.
For test [2], the target named is T1, Muscarinic acetylcholine receptor M2 (Rattus norvegicus, UniProt P10980).
T1 sequence (P10980 whole entry): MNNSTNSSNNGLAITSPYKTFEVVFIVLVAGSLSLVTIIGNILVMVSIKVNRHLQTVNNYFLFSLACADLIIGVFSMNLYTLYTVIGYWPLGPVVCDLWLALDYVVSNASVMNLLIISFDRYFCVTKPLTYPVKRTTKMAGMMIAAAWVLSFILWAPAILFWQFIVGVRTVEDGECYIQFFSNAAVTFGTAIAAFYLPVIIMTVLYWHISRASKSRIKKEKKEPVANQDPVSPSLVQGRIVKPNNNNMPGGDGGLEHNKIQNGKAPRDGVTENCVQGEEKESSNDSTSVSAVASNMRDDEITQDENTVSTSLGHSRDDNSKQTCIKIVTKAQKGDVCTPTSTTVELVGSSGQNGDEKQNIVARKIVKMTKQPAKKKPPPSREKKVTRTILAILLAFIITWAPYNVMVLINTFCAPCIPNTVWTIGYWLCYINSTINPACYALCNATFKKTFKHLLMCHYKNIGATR
In words: Inhibition of binding of [3H]N-methylscopolamine to muscarinic receptor (M2) in rat heart homogenates. It counts as tissue-based.

Test [3] deals with T2, Muscarinic acetylcholine receptor M4 (Rattus norvegicus, UniProt P08485).
T2 sequence (P08485 whole entry): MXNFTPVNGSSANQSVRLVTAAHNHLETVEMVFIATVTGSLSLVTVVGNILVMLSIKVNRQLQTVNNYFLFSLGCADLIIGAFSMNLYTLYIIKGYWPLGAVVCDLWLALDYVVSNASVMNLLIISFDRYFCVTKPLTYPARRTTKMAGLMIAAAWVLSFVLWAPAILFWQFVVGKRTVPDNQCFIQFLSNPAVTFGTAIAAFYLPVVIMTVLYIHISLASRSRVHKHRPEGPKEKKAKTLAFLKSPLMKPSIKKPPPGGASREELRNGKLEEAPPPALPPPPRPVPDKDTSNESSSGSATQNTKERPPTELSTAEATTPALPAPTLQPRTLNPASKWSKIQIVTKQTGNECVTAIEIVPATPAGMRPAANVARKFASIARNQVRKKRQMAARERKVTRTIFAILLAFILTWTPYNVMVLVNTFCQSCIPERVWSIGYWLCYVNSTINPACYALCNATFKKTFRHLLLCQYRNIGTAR
In words: Inhibition of binding of [3H]N-methylscopolamine to Muscarinic acetylcholine receptor M4 in NG 108-15 cell homogenates. It counts as cell-free.

Test [4] has as its target T3, Muscarinic acetylcholine receptor M1 (Rattus norvegicus, UniProt P08482).
T3 sequence (P08482 whole entry): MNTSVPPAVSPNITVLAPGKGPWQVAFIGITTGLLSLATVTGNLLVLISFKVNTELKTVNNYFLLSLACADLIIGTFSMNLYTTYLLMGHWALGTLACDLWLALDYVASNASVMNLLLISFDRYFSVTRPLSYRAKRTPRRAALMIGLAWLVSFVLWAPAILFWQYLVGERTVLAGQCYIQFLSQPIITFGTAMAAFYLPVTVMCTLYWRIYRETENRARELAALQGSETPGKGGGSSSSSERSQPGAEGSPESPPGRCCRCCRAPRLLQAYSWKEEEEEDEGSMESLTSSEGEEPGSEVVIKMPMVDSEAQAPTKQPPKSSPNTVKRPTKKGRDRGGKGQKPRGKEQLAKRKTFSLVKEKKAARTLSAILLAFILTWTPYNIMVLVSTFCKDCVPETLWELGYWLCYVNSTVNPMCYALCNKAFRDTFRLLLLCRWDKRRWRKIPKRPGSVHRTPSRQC
In words: Inhibition of binding of [3H]pirenzepine to muscarinic receptor (M1) in rat cortex homogenates.

Molecules are shown by their SMILES.

Results on 3 molecules are retold here after ChEMBL document CHEMBL1151491 (Bioorg Med Chem Lett, 1995).

As usually defined, the Ki is the dissociation constant of the complex between target and ligand, obtained from inhibition or displacement. Read a low Ki as higher affinity.

Chain of Muscarinic acetylcholine receptor M3 (P08483 whole entry): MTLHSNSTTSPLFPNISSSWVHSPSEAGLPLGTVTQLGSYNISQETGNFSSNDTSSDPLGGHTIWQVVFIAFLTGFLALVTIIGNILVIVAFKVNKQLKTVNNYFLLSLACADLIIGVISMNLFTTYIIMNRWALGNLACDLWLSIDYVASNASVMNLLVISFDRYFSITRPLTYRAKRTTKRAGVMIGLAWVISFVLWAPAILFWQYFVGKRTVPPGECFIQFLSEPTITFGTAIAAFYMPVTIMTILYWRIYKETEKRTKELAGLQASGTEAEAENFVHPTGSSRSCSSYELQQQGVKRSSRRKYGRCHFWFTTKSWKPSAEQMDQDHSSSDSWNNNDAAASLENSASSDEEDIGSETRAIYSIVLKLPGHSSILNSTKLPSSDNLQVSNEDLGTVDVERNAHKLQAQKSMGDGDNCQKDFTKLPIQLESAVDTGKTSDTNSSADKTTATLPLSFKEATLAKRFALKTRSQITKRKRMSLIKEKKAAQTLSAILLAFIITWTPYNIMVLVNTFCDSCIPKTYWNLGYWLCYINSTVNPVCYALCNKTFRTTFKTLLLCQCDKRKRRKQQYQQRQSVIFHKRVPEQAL

With `CN(CCCCCCCCN(C)CCCCCCN1CCC(OC(=O)C(c2ccccc2)c2ccccc2)CC1)CCCCCCN1CCC(OC(=O)C(c2ccccc2)c2ccccc2)CC1`, the Ki in test [1] was 2140 nM; in test [2], 182 nM; in test [3], 39.8 nM; in test [4], 75.9 nM.

`C[N+]1(C)CCC(OC(=O)C(c2ccccc2)c2ccccc2)CC1` [4-DAMP] had a Ki in test [3] of […].

`CN(CCCCCCCCN(C)CCCCCCN1CCC2(CC1)OC(=O)C(c1ccccc1)(c1ccccc1)O2)CCCCCCN1CCC2(CC1)OC(=O)C(c1ccccc1)(c1ccccc1)O2` [SPIROTRAMINE]: the Ki in test [1] was 977 nM; in test [2] it was 631 nM; in test [3], 537 nM; in test [4] it was 13.2 nM.
